{
  "source": "patent US11382918B2",
  "about": "“Methods for treating Huntington's Disease” (PTC Therapeutics, Inc., priority 2017, dated 2022)",
  "note": "Structures can show the parent of a compound that is named as a salt.",
  "data": [
    {"test_system": "Endogenous Huntingtin Protein (HTT)", "assay": "Endogenous Huntingtin Protein Assay (ELISA-based MSD electrochemiluminescence)", "assay_type": "cell-based", "settings": "Table 1", "in_short": "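HTT protein in lysates was measured by electrochemiluminescence on the MSD platform. Rabbit monoclonal 5656S followed by SULFO-TAG anti-rabbit antibody served for detection after overnight 4 °C capture with MAB2166 or the polyglutamine-directed MW1 antibody.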", "units": {"IC50": "µM"}, "values": [
      {"smiles": "O=c1cc(-c2ccc3nc(C(F)(F)F)cn3c2)nc2ccc(N3CCNCC3)cn12", "note": "[compound 123, 7-(piperazin-1-yl)-2-[2-(trifluoromethyl)imidazo[1,2-a]pyridin-6-yl]-4H-pyrido[1,2-a]pyrimidin-4-one]", "IC50": "3 to 33"},
      {"smiles": "Cn1cc2cc(-c3cc(=O)n4cc(C5CCN(CCO)CC5)ncc4n3)ccc2n1", "note": "[compound 569, 7-[1-(2-hydroxyethyl)piperidin-4-yl]-2-(2-methyl-2H-indazol-5-yl)-4H-pyrazino[1,2-a]pyrimidin-4-one]", "IC50": "1 to 3"},
      {"smiles": "CCN1CC=C(c2cn3c(=O)cc(-c4ccc5nc(C)oc5c4)nc3cn2)CC1", "note": "[compound 423, 7-(1-ethyl-1,2,3,6-tetrahydropyridin-4-yl)-2-(2-methyl-1,3-benzoxazol-6-yl)-4H-pyrazino[1,2-a]pyrimidin-4-one]", "IC50": "3 to 33"},
      {"smiles": "Cc1cn2nc(-c3cc(=O)n4cc(N5C[C@@H](C)N(C)[C@@H](C)C5)ccc4n3)cc2c(C)n1", "note": "[compound 259, 2-(4,6-dimethylpyrazolo[1,5-a]pyrazin-2-yl)-7-[(3R,5S)-3,4,5-trimethylpiperazin-1-yl]-4H-pyrido[1,2-a]pyrimidin-4-one]", "IC50": "3 to 33"},
      {"smiles": "Cc1cn2nc(-c3cc(=O)n4cc(N5CCN6CCC[C@@H]6C5)ccc4n3)cc2c(C)n1", "note": "[compound 337, 2-(4,6-dimethylpyrazolo[1,5-a]pyrazin-2-yl)-7-[(8aR)-hexahydropyrrolo[1,2-a]pyrazin-2(1H)-yl]-4H-pyrido[1,2-a]pyrimidin-4-one]", "IC50": "3 to 33"},
      {"smiles": "CCc1nc(C)cn2nc(-c3cc(=O)n4cc(N5CCN[C@@H](C)C5)ccc4n3)cc12", "note": "[compound 635, 2-(4-ethyl-6-methylpyrazolo[1,5-a]pyrazin-2-yl)-7-[(3S)-3-methylpiperazin-1-yl]-4H-pyrido[1,2-a]pyrimidin-4-one]", "IC50": "1 to 3"},
      {"smiles": "CCN1CCC(c2cn3c(=O)cc(-c4ccc5nc(C)cn5n4)nc3c(C)n2)CC1", "note": "[compound 873, 7-(1-ethylpiperidin-4-yl)-9-methyl-2-(2-methylimidazo[1,2-b]pyridazin-6-yl)-4H-pyrazino[1,2-a]pyrimidin-4-one]", "IC50": "0.1 to 0.5"},
      {"smiles": "Cc1cn2cc(-c3cc(=O)n4cc(N5CCN[C@@H](C)C5)ccc4n3)nc2cn1", "note": "[compound 75, 2-(6-methylimidazo[1,2-a]pyrazin-2-yl)-7-[(3S)-3-methylpiperazin-1-yl]-4H-pyrido[1,2-a]pyrimidin-4-one]", "IC50": "1 to 3"},
      {"smiles": "Cc1nc2c(F)cc(-c3cc(=O)n4cc(N5CCNCC5)ccc4n3)cc2o1", "note": "[compound 305, 2-(4-fluoro-2-methyl-1,3-benzoxazol-6-yl)-7-(piperazin-1-yl)-4H-pyrido[1,2-a]pyrimidin-4-one]", "IC50": "0.1 to 0.5"},
      {"smiles": "CCc1nc(C)cn2nc(-c3cc(=O)n4cc(N5CCNCC5)ccc4n3)cc12", "note": "[compound 546, 2-(4-ethyl-6-methylpyrazolo[1,5-a]pyrazin-2-yl)-7-(piperazin-1-yl)-4H-pyrido[1,2-a]pyrimidin-4-one]", "IC50": "1 to 3"},
      {"smiles": "COc1ccc(-c2cc(=O)n3cc(N4CCNCC4)ccc3n2)cc1F", "note": "[compound 72, 2-(3-fluoro-4-methoxyphenyl)-7-(piperazin-1-yl)-4H-pyrido[1,2-a]pyrimidin-4-one]", "IC50": "3 to 33"},
      {"smiles": "Cc1cc(N(C)C2CC(C)(C)NC(C)(C)C2)cn2c(=O)cc(-c3ccc4nn(C)cc4c3)nc12", "note": "[compound 853, 9-methyl-2-(2-methyl-2H-indazol-5-yl)-7-[methyl(2,2,6,6-tetramethylpiperidin-4-yl)amino]-4H-pyrido[1,2-a]pyrimidin-4-one]", "IC50": "3 to 33"},
      {"smiles": "Cc1cn2nc(-c3cc(=O)n4cc(C5CCNCC5)nc(C)c4n3)ccc2n1", "note": "[compound 870, 9-methyl-2-(2-methylimidazo[1,2-b]pyridazin-6-yl)-7-(piperidin-4-yl)-4H-pyrazino[1,2-a]pyrimidin-4-one hydrochloride (1:2)]", "IC50": "< 0.1"},
      {"smiles": "Cn1ncc2cc(-c3cc(=O)n4cc(N5CCNCC5)ccc4n3)ccc21", "note": "[compound 490, 2-(1-methyl-1H-indazol-5-yl)-7-(piperazin-1-yl)-4H-pyrido[1,2-a]pyrimidin-4-one]", "IC50": "3 to 33"},
      {"smiles": "Cc1csc(-c2cc(=O)n3cc(N4CCNCC4)ccc3n2)n1", "note": "[compound 163, 2-(4-methyl-1,3-thiazol-2-yl)-7-(piperazin-1-yl)-4H-pyrido[1,2-a]pyrimidin-4-one]", "IC50": "3 to 33"},
      {"smiles": "Cc1cc(-c2cc(=O)n3cc(N4CCN[C@@H](C)C4)ccc3n2)cc2cn(C)nc12", "note": "[compound 750, 2-(2,7-dimethyl-2H-indazol-5-yl)-7-[(3S)-3-methylpiperazin-1-yl]-4H-pyrido[1,2-a]pyrimidin-4-one]", "IC50": "3 to 33"},
      {"smiles": "O=c1cc(-c2cccnc2)nc2ccc(N3CCNCC3)cn12", "note": "[compound 228, 7-(piperazin-1-yl)-2-(pyridin-3-yl)-4H-pyrido[1,2-a]pyrimidin-4-one]", "IC50": "3 to 33"},
      {"smiles": "Cn1ccc2cc(-c3cc(=O)n4cc(N5CCNCC5)ccc4n3)cnc21", "note": "[compound 129, 2-(1-methyl-1H-pyrrolo[2,3-b]pyridin-5-yl)-7-(piperazin-1-yl)-4H-pyrido[1,2-a]pyrimidin-4-one]", "IC50": "3 to 33"},
      {"smiles": "Cc1cc(C2CCN(C3CCC3)CC2)cn2c(=O)cc(-c3ccc4nn(C)cc4c3)nc12", "note": "[compound 710, 7-(1-cyclobutylpiperidin-4-yl)-9-methyl-2-(2-methyl-2H-indazol-5-yl)-4H-pyrido[1,2-a]pyrimidin-4-one]", "IC50": "0.1 to 0.5"},
      {"smiles": "Cc1cn2cc(-c3ccc4nc(C5CCN(C)CC5)cc(=O)n4c3)cc(F)c2n1", "note": "[compound 462, 7-(8-fluoro-2-methylimidazo[1,2-a]pyridin-6-yl)-2-(1-methylpiperidin-4-yl)-4H-pyrido[1,2-a]pyrimidin-4-one]", "IC50": "1 to 3"},
      {"smiles": "Cc1cn2cc(-c3cc(=O)n4cc(N5CCNCC5)ccc4n3)ccc2n1", "note": "[compound 109, 2-(2-methylimidazo[1,2-a]pyridin-6-yl)-7-(piperazin-1-yl)-4H-pyrido[1,2-a]pyrimidin-4-one]", "IC50": "1 to 3"},
      {"smiles": "Cc1cn2cc(-c3cc(=O)n4cc(N5CCNCC5)ccc4n3)cc(CO)c2n1", "note": "[compound 674, 2-[8-(hydroxymethyl)-2-methylimidazo[1,2-a]pyridin-6-yl]-7-(piperazin-1-yl)-4H-pyrido[1,2-a]pyrimidin-4-one]", "IC50": "3 to 33"},
      {"smiles": "Cc1cn2nc(-c3cc(=O)n4cc(N5CCN(CCO)[C@H](C)C5)ccc4n3)cc2c(C)n1", "note": "[compound 532, 2-(4,6-dimethylpyrazolo[1,5-a]pyrazin-2-yl)-7-[(3R)-4-(2-hydroxyethyl)-3-methylpiperazin-1-yl]-4H-pyrido[1,2-a]pyrimidin-4-one]", "IC50": "1 to 3"},
      {"smiles": "Cc1cn2nc(-c3cc(=O)n4cc(N5CCC6C(CCN6CCO)C5)ccc4n3)cc2c(C)n1", "note": "(centres unmarked) [compound 624, 2-(4,6-dimethylpyrazolo[1,5-a]pyrazin-2-yl)-7-[1-(2-hydroxyethyl)octahydro-5H-pyrrolo[3,2-c]pyridin-5-yl]-4H-pyrido[1,2-a]pyrimidin-4-one]", "IC50": "0.5 to 1"},
      {"smiles": "CCc1nc(C)cn2nc(-c3cc(=O)n4cc(N5CCC(N(C)C)CC5)ccc4n3)cc12", "note": "[compound 550, 7-[4-(dimethylamino)piperidin-1-yl]-2-(4-ethyl-6-methylpyrazolo[1,5-a]pyrazin-2-yl)-4H-pyrido[1,2-a]pyrimidin-4-one]", "IC50": "3 to 33"},
      {"smiles": "CCN1CCC(c2cn3c(=O)cc(-c4cc(C)c5nc(C)cn5c4)nc3cn2)CC1", "note": "[compound 593, 2-(2,8-dimethylimidazo[1,2-a]pyridin-6-yl)-7-(1-ethylpiperidin-4-yl)-4H-pyrazino[1,2-a]pyrimidin-4-one]", "IC50": "1 to 3"}
    ]}
  ]
}
